# In patent US20190060330A1, “APPLICATION OF 4-HYDROXY SALICYLANILIDE IN PREPARATION OF ANTI-MYELOMA OR ANTI-LYMPHOMA DRUGS” (priority 2016, published 2019):
# “And” between values parts separate entries of the source, which are not always exact repeats. Identical values can stand only once.
# Legend:
# NU-DUL-1 cells = test: CCK8 cytotoxicity, NU-DUL-1 lymphoma cells; format: cell-based; conditions: Homo sapiens, 72 h
# Method: (§1) A single-cell suspension of human multiple myeloma cells (H929 cells, OPM2 cells, U266 cells, OCI-MY5 cells, RPMI 8266 cells) was taken for cell counting, and the cell concentration was adjusted to 2×10^5 cells/mL. 95 μL of the above cell suspension was added into each well of a 96-well culture plate, and then 5 μL of the drug prepared with the medium was added at different concentrations, while the same volume of culture medium was added in the control group. Three parallel wells were set in each group. The plate was subjected to continuous culture for 72 h. 2 hours before the end of the culture, 10 μL of CCK8 reagent was added into each well, and the plate was continued to culture in a CO2 incubator. After 2 hours, the OD value of each well at 450 nm was detected by an automatic microplate reader. Cell viability and inhibition rate were calculated: cell viability (%)=(OD mean of experimental well/OD mean of control well)×100%. Cell inhibition rate (%)=100%−cell viability (%). The fitting function was used to determine the IC50 of the drug concentration when the cell growth was inhibited by 50%. The experiment was in triplicate.
# (§2) Cell lines: human lymphoma cells (SUDHL-4 cells, OCI-LY1 cells, OCI-LY8 cells, DB cells, NU-DUL-1 cells, U2932 cells, TMD8 cells)(from ATCC. USA. The cells were passaged and preserved in the applicant's laboratory). IMDM (Gibco Co., USA). […]
# U266 cells = test: CCK8 cytotoxicity, U266 multiple myeloma cells; format: cell-based; conditions: Homo sapiens, U-266, 72 h
# Method: (§3) (1) Cell lines: human multiple myeloma cells (H929 cells, OPM2 cells, U266 cells, OCI-MY5 cells, RPMI 8266 cells) (from ATCC of USA. The cells were passaged and preserved in the applicant's laboratory), were cultured in a 1640 culture medium (containing 10% fetus bovine serum).
# (§4) The cells were cultured in 1640 medium (containing 10% fetal bovine serum, pH 7.2) supplemented with 2 mmol/L glutamine. The cells were cultured in a cell culture incubator at 37° C., 5% CO2.
# as §1, with “Cell viability and inhibition rate were calculated: cell viability (%)=(OD mean of experimental well/OD mean of control well)×100%. Cell inhibition rate (%)=100%−cell viability (%). The fitting function was used to determine the IC50 of the drug concentration when the cell growth was inhibited by 50%. The experiment was in triplicate.” left out
# OCI-LY8 cells = test: Animal experiment against lymphoma: subcutaneous OCI-LY8 tumors in nude mice; format: in vivo, BALB/C nude mice; conditions: 60 mg/kg every other day, caudal vein, 18 days
# Method: (1) Cell lines: human lymphoma cells (OCI-LY8 cells) (from ATCC, USA. The cells were passaged and preserved in the applicant's laboratory) were cultured in IMDM (containing 10% fetus bovine serum).
# (2) Experimental animals: referring to Example 2.
# (§5) The IMDM containing 3×10^6 OCI-LY8 cells was injected subcutaneously into the right axilla of the nude mice, and when the tumors grew to a measurable size, the mice were randomly assigned into the control group and the administration group. The nude mice in the administration group were injected through caudal vein with 4-hydroxy salicylanilide at 60 mg/kg ever other day. The nude mice in the control group were injected with the same volume of solvent (200 μL, 5% DMSO+4% castor oil+91% normal saline). The tumor sizes were measured every two days (measuring the length and width of the tumor, tumor volume=4π/3×(width/2)^2×(length/2)). The mice were sacrificed after a 18-day administration and the tumors were taken for taking photos.
# H929 cells [1] = test: CCK8 cytotoxicity, H929 multiple myeloma cells; format: cell-based; conditions: Homo sapiens, NCI-H929, 72 h
# Method: as §3, §4
# as §1, with “Cell viability and inhibition rate were calculated: cell viability (%)=(OD mean of experimental well/OD mean of control well)×100%. Cell inhibition rate (%)=100%−cell viability (%). The fitting function was used to determine the IC50 of the drug concentration when the cell growth was inhibited by 50%. The experiment was in triplicate.” left out
# TMD8 cells = test: CCK8 cytotoxicity, TMD8 lymphoma cells; format: cell-based; conditions: Homo sapiens, 72 h
# Method: as §1, §2
# H929 cells [2] = test: Animal experiment for multiple myeloma: subcutaneous H929 tumors in nude mice; format: in vivo, BALB/C nude mice; conditions: caudal vein
# Method: (1) Cell line: human multiple myeloma cells (H929 cells) (from ATCC, USA. The cells were passaged and preserved in the applicant's laboratory), were cultured in a 1640 culture medium (containing 10% fetus bovine serum).
# (2) Experimental animals: Male BALB/C nude mice (4-6 week old, purchased from Shanghai Sippr-BK laboratory animal Co. Ltd), were housed in an SPF condition (Center Laborotory Animal Room, Shanghai Tenth People's Hospital).
# The cells were cultured in 1640 a 1640 culture medium (containing 10% fetus bovine serum, pH 7.2) supplemented with 2 mmol/L glutamine. The resultant was cultured in a incubator at 37° C. under 5% CO2 environment.
# as §5, with “1640 medium” for “IMDM”, “3.5×10^6 H929” for “3×10^6 OCI-LY8”, “50” for “60”, “and 100 mg/kg per” for “ever other”, “volume=0.5×(width)^2×length).” for “volume=4π/3×(width/2)^2×(length/2)).”, “22-day” for “18-day”
structure (smiles),measurement,setting,value
O=C(Nc1ccc(O)cc1)c1ccccc1O,IC50,NU-DUL-1 cells,188 µM
same,IC50,U266 cells,271 µM
same,Inhibition of growth of lymphoma in nude mice (in words),OCI-LY8 cells,effectively inhibit the growth of lymphoma
same,IC50,H929 cells [1],179 µM
same,IC50,TMD8 cells,164 µM
same,"Tumor volume, individual mice No. 1-4","H929 cells [2]; 50 mg/kg per day, day 0",0.08 cm^3 (2×) and 0.11 cm^3 and 0.10 cm^3
same,"Tumor volume, mean","H929 cells [2]; 50 mg/kg per day, day 0",0.10 cm^3
same,"Tumor volume, individual mice No. 1-4","H929 cells [2]; 50 mg/kg per day, day 2",0.15 cm^3 (2×) and 0.17 cm^3 and 0.11 cm^3
same,"Tumor volume, mean","H929 cells [2]; 50 mg/kg per day, day 2",0.15 cm^3
same,"Tumor volume, individual mice No. 1-4","H929 cells [2]; 50 mg/kg per day, day 4",0.24 cm^3 and 0.25 cm^3 and 0.22 cm^3 and 0.14 cm^3
same,"Tumor volume, mean","H929 cells [2]; 50 mg/kg per day, day 4",0.21 cm^3
same,"Tumor volume, individual mice No. 1-4","H929 cells [2]; 50 mg/kg per day, day 6",0.38 cm^3 (2×) and 0.30 cm^3 and 0.27 cm^3
same,"Tumor volume, mean","H929 cells [2]; 50 mg/kg per day, day 6",0.33 cm^3
same,"Tumor volume, individual mice No. 1-4","H929 cells [2]; 50 mg/kg per day, day 8",0.58 cm^3 and 0.50 cm^3 and 0.37 cm^3 (2×)
same,"Tumor volume, mean","H929 cells [2]; 50 mg/kg per day, day 8",0.45 cm^3
same,"Tumor volume, individual mice No. 1-4","H929 cells [2]; 50 mg/kg per day, day 10",0.77 cm^3 and 0.63 cm^3 and 0.64 cm^3 and 0.49 cm^3
same,"Tumor volume, mean","H929 cells [2]; 50 mg/kg per day, day 10",0.63 cm^3
same,"Tumor volume, individual mice No. 1-4","H929 cells [2]; 50 mg/kg per day, day 12",0.99 cm^3 and 0.78 cm^3 and 0.80 cm^3 and 0.74 cm^3
same,"Tumor volume, mean","H929 cells [2]; 50 mg/kg per day, day 12",0.83 cm^3
same,"Tumor volume, individual mice No. 1-4","H929 cells [2]; 50 mg/kg per day, day 14",1.20 cm^3 and 1.15 cm^3 and 0.97 cm^3 and 1.03 cm^3
same,"Tumor volume, mean","H929 cells [2]; 50 mg/kg per day, day 14",1.09 cm^3
same,"Tumor volume, individual mice No. 1-4","H929 cells [2]; 50 mg/kg per day, day 16",1.53 cm^3 and 1.47 cm^3 and 1.31 cm^3 and 1.35 cm^3
same,"Tumor volume, mean","H929 cells [2]; 50 mg/kg per day, day 16",1.41 cm^3
same,"Tumor volume, individual mice No. 1-4","H929 cells [2]; 50 mg/kg per day, day 18",2.08 cm^3 and 1.81 cm^3 and 1.54 cm^3 and 1.71 cm^3
same,"Tumor volume, mean","H929 cells [2]; 50 mg/kg per day, day 18",1.79 cm^3
same,"Tumor volume, individual mice No. 1-4","H929 cells [2]; 50 mg/kg per day, day 20",2.59 cm^3 and 2.22 cm^3 and 1.77 cm^3 and 2.12 cm^3
same,"Tumor volume, mean","H929 cells [2]; 50 mg/kg per day, day 20",2.17 cm^3
same,"Tumor volume, individual mice No. 1-4","H929 cells [2]; 50 mg/kg per day, day 22",3.39 cm^3 and 2.44 cm^3 and 2.19 cm^3 and 2.89 cm^3
same,"Tumor volume, mean","H929 cells [2]; 50 mg/kg per day, day 22",2.72 cm^3
same,"Tumor volume, individual mice No. 1-4","H929 cells [2]; 100 mg/kg per day, day 0",0.10 cm^3 and 0.08 cm^3 and 0.04 cm^3 and 0.07 cm^3
same,"Tumor volume, mean","H929 cells [2]; 100 mg/kg per day, day 0",0.07 cm^3
